The text below walks through data of paper PMC5913406 (British Journal of Pharmacology, 2018).

Experiment [1] concerns A1 receptor. The conditions noted are these: 25°C; ref Guo et al., 2013; cited from earlier work.
In experiment [2] the target is T1, human adenosine A1 receptor (Homo sapiens, UniProt P30542).
T1 sequence (P30542 1-326): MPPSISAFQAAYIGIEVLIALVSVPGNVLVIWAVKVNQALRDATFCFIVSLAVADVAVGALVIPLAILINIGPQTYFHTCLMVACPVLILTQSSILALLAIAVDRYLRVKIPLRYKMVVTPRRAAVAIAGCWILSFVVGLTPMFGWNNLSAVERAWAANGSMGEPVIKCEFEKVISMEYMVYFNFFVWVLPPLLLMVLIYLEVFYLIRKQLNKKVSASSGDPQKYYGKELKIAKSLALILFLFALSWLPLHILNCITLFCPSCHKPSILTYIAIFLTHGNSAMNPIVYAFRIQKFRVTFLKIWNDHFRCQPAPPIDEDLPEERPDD
The experiment in a line: Two‐state competition association assay with [^3H]‐NECA. The experiment is classed as binding.

Experiment [3] concerns the target T1, human adenosine A1 receptor. Briefly: Competition binding assay: displacement of [^3H]‐NECA on CHOhA1R cell membranes.

Turning to `CCCn1c(=O)c2[nH]c(C3CCCC3)nc2n(CCC)c1=O` [DPCPX, 1,3‐dipropyl‐8‐cyclopentylxanthine], the association rate in experiment [1] is 3.33e+06 M⁻¹ s⁻¹. Also, the “k6 (dissociation rate constant of competitor at R1 state)” value in experiment [2] (two‐state model, 30°C, mean ± SEM of five experiments) came out at 0.78 ± 1.42 min⁻¹.

`c1ccc(-c2nc(-c3ccccc3)c3nc(C4CCCC4)[nH]c3n2)cc1` [LUF5962, 8‐cyclopentyl‐2,6‐diphenyl‐9H‐purine]: the association rate in experiment [1] was 2e+06 M⁻¹ s⁻¹. Besides, the Kb in experiment [2] (KB,2, KB,2 = k8/k7, R2 state, 30°C, DPCPX and LUF5962 values ambiguous) was found to be 15 nM. In experiment [2] (read-out: k5 (association rate constant of competitor at R1 state)), the kon is 167000 M⁻¹ s⁻¹. Further, in experiment [2] (read-out: k6 (dissociation rate constant of competitor at R1 state)), the koff was 0.00383 s⁻¹. For the same compound, the IC50 in experiment [3] was 74.1 nM.

In general, IC50 refers to the point on the concentration scale where inhibition reaches its midpoint. A high value points to lower potency.
